Measured values reported in patent US20190008155A1, “Synergistic Agricultural Formula Comprising Diacyl or Diaryl Urea and At Least One Plant Growth Regulator” (Stoller Enterprises, Inc., priority 2017, published 2019).

Tests used:
Assay type in all cases: in vivo
corn [1] = test: Yield upon corn seed treatment (FIG. 5); details: statistical data for FIG. 5, yield
Excerpt: (§1) FIG. 5 is a graph showing the yield upon corn seed treatment using a synergistic agricultural formula in accordance with the present invention including 14 wt. % DFU and 10 wt. % of Stollers STIMULATE YE Plant Growth Regulator Mix applied at a Pint/Acre compared to each individual component applied at a Pint/Acre;
(§2) The statistical data for this analysis is provided as follows: […]

winter wheat = test: Yield upon winter wheat seed treatment (FIG. 6); details: statistical data for FIG. 6, yield
Excerpt: as §1, with “6” for “5”, “winter wheat” for “corn”
as §2

soybean = test: Yield upon soybean seed treatment (FIG. 7); details: statistical data for FIG. 7, yield
Excerpt: as §1, with “7” for “5”, “soybean” for “corn”
as §2

corn [2] = test: Yield in furrow corn treatment (FIG. 8); details: statistical data for FIG. 8, yield
Excerpt: FIG. 8 is a graph showing the yield in furrow corn treatment using a synergistic agricultural formula in accordance with the present invention including 7.5 wt. % DFU, 0.01 wt. % cytokinin, and 0.05 wt. % IAA applied at a Pint/Acre compared to each individual component applied at a Pint/Acre; and
as §2

corn [3] = test: Yield, V3-V5 foliar corn treatment (FIG. 9); details: statistical data for FIG. 9, yield
Excerpt: FIG. 9 is a graph showing V3-V5 foliar corn treatment using a synergistic agricultural formula in accordance with the present invention including 7.5 wt. % DFU and 0.01 wt. % cytokinin applied at a Pint/Acre compared to each individual component applied at a Pint/Acre.
as §2

O=CNC(=O)NC=O [15% DFU, N,N′-diformylurea]
p Vs Combination (corn [1]): 0.0442
p Vs Control (corn [1]): 0.8782
p Vs Combination (winter wheat): 0.0089
p Vs Control (winter wheat): 0.0026
p Vs Combination (soybean): 0.052
p Vs Control (soybean): 0.4492
p Vs Combination (corn [2]): 0.0622
p Vs Control (corn [2]): 0.5485
p Vs Combination (corn [3]): 0.0677
p Vs Control (corn [3]): 0.6829
